In patent publication US20250353873A1, “COMPOUNDS AND METHODS FOR MODULATING APOE EXPRESSION” (Ionis Pharmaceuticals, Inc., priority 2024, published 2025):
Like-named read-outs stand apart in the source and are kept apart here. Strand notation (5' to 3'): a small letter for the sugar, then the base; units joined by * are phosphorothioate-linked, units joined directly phosphodiester-linked; [ ] holds rarer units or linkages, { } end groups; capitals alone tell only the bases. [ms] = mesyl phosphoramidate linkage; e = 2'-O-(2-methoxyethyl) (MOE); k = constrained ethyl (cEt); [5mC] = 5-methylcytosine; d = 2'-deoxy (DNA)

How the values were obtained:
human APOE RNA [1] = assay: Dose-dependent reduction of human APOE RNA in HepG2 cells, electroporation, 20,000 cells per well, normalized to PPIA (Example 4, Table 11); format: cell-based; conditions: HepG2 cells, 20,000 cells per well, approximately 24 hours; for APOE RNA (% UTC) 5 nM / APOE RNA (% UTC) 13 nM / APOE RNA (% UTC) 33 nM / APOE RNA (% UTC) 82 nM / APOE RNA (% UTC) 205 nM / APOE RNA (% UTC) 512 nM / IC50: PPIA-normalized; for APOE RNA (% UTC) 1,280 nM: PPIA-normalized, 1,280 nM; for APOE RNA (% UTC) 3,200 nM: PPIA-normalized, 3,200 nM; for APOE RNA (% UTC) 8,000 nM: PPIA-normalized, 8,000 nM; for APOE RNA (% UTC) 20,000 nM: PPIA-normalized, 20,000 nM; for IC50: reduction of human APOE RNA
Procedure: HepG2 cells plated at a density of 20,000 cells per well were treated by electroporation with various concentrations of modified oligonucleotide as specified in the tables below. […] APOE RNA levels were measured using the human primer probe set RTS3073 (described herein above). APOE RNA levels were normalized to human PPIA. Human PPIA was amplified using human primer probe set mk_cycloA_2nd (forward sequence […], designated herein as SEQ ID NO: 13; reverse sequence […], designated herein as SEQ ID NO: 14; probe sequence […], designated herein as SEQ ID NO: 15). Normalized results are presented in the table below as percent APOE RNA, relative to the amount of APOE RNA in untreated control cells (% UTC). The half maximal inhibitory concentration (IC50) of each modified oligonucleotide was calculated in GraphPad Prism 10 (GraphPad Software, San Diego, CA) and is also presented in the table below.

human APOE RNA [2] = assay: Activity in APOE 1549 knock-in mice, single ICV bolus, 4 weeks (Example 8); format: in vivo; conditions: n = 6, single ICV bolus 300 μg, 4 weeks
Procedure: Modified oligonucleotides described above were tested in the 1549 APOE knock-in mouse model described above.
APOE knock-in mice were divided into groups of either 2 or 6 mice each as described in the tables below. Each mouse received a single intracerebroventricular (ICV) bolus of 300 μg of modified oligonucleotide. A group of either 3 or 6 mice received a single ICV bolus with PBS as a negative control.
(§1) Four weeks post treatment, mice were sacrificed and RNA was extracted from cortical brain tissue and spinal cord for quantitative real-time RT-PCR analysis of RNA expression of APOE using primer probe set RTS3073 (described herein above). APOE RNA levels were normalized to mouse Ppia. Mouse Ppia was amplified using primer probe set m_cyclo24 (described herein above). Results are presented as percent human APOE RNA relative to the amount of human APOE RNA in PBS treated animals, (% control). Each experiment is identified in separate tables below.

BJAB cells [3] = test system: BJAB cells
Procedure: (§2) Human APOE modified oligonucleotides were tested for potential immunostimulatory properties in an in vitro human BJAB activation assay.
(§3) Human Burkitt lymphoma B cells, BJAB cells (DSMZ, Cat #ACC 757) were cultured in RPMI1640 medium containing 20% fetal bovine serum at 37° C. and 5% CO2. Cells were maintained at a density of 0.5-0.7×10^6 cells per milliliter. Cells were transferred to 50 mL conical Falcon tubes and centrifuged at 330 RCF for 5 minutes before being resuspended at a concentration of 7.5×10^4 cells per milliliter in RPMI culture medium containing penicillin and streptomycin. 50 μL of the cell suspension was added to a v-bottom tissue culture treated 96-well microplate. 11 μl of 10× concentrated modified oligonucleotides was then added to the plate for a final concentration of 1.6 μM and incubated for 24 hours at 37° C. and 5% CO2.
(§4) After a treatment period of 24 hours, total RNA was isolated from the cells and CCL22 RNA levels were measured by quantitative real-time RT-PCR. CCL22 RNA levels were measured by human primer-probe set RTS49260 (forward sequence [sequence], designated herein as SEQ ID NO: 19; reverse sequence [sequence], designated herein as SEQ ID NO: 20; probe sequence [sequence], designated herein as SEQ ID NO: 21). CCL22 RNA levels were normalized to total RNA content, as measured by GAPDH. Human GAPDH was measured using the human primer-probe set RTS104 (forward sequence [sequence], designated herein as SEQ ID NO: 10; reverse sequence [sequence], designated herein as SEQ ID NO: 11; probe sequence [sequence], designated herein as SEQ ID NO: 12). Levels of CCL22 RNA is presented log fold increase of CCL22, relative to untreated control cells (UTC). The assignment of the immunostimulatory properties of the test compounds is based on the immunostimulatory properties of the internal control compounds in each assay.

BJAB cells [4] = assay: Evaluation of proinflammatory effects in BJAB assay, CCL22 RNA (Example 17); conditions: for inflammatory response in human BJAB cells: 24-hour culturing period, assay of Example 17; for LOG10 CCL22 relative to UTC / Immunostimulatory Properties: BJAB cells, 1.6 μM, 24 hours; for LOG10 CCL22 relative to UTC: CCL22 RNA normalized to GAPDH; for Immunostimulatory Properties: assigned relative to internal control compounds of each assay
Procedure: as §2, §3, §4

human APOE RNA [5] = assay: Activity in APOE 1549 knock-in mice, single ICV bolus, 2 weeks (Example 7); format: in vivo; conditions: single ICV bolus of 300 μg, two weeks post treatment, Table 17
Summary of the method: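 Human APOE knock-in mice (model 41549), 2 per group, given a single 300 µg ICV bolus of oligonucleotide, with PBS as control. After 2 weeks, APOE RNA in cortex and spinal cord measured by RT-qPCR, normalized to mouse Ppia, and expressed as % of PBS control.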

human APOE RNA [6] = assay: Activity in APOE C57BL/6NTac-Apoeem7250 knock-in mice, single ICV bolus, 2 weeks (Example 9); format: in vivo; conditions: single ICV bolus 300 μg
Procedure: Modified oligonucleotides described above were tested in the APOE knock-in mouse model C57BL/6NTac-Apoeem7250_B-A02(APOE)Tac, a heterozygous APOE mouse model. APOE knock-in mice used in this study express the full-length human APOE gene knocked into the mouse locus. Humanization of APOE gene was done via CRISPR/Cas-9-mediated gene editing, allowing for generation of a model with constitutive expression of human APOE gene. Targeting strategy was based on NCBI transcripts NM_009696.4 (mouse) and NM_000041.4 (human). Mouse genomic sequence from exon 1 to exon 4 (including the 5′ and 3′ UTRs) was replaced with the human counterpart from 141 bp upstream of exon 1 to 28 bp downstream of exon 4. A plasmid allowing expression of Cas9 mRNA, specific gRNA, and the puromycin resistance cassette, and a plasmid containing the homology regions of the mouse APOE gene, and the replaced human region were co-transfected into the Taconic Biosciences C57BL/6N Tac ES cell line. Homologous recombination clones were isolated using positive puromycin selection, and humanized allele was obtained after Cas9-mediated gene editing. C57BL/6NTac-Apoeem7250_B-A02(APOE)Tac mice were used in the in vivo experiments described below.
APOE C57BL/6NTac-Apoeem7250 knock-in mice were divided into groups of 3 mice each. Each mouse received a single ICV bolus of 300 μg of modified oligonucleotide. A group of 3 mice received a single ICV bolus with PBS as a negative control.
as §1, with “Two weeks post” for “Four weeks post”, “APOE using human primer probe” for “APOE using primer probe”, “(% control).” for “(% control). Each experiment is identified in separate tables below.”

Substance | APOE RNA (% UTC) 5 nM (human APOE RNA [1]) [% UTC] | APOE RNA (% UTC) 13 nM (human APOE RNA [1]) [% UTC] | APOE RNA (% UTC) 33 nM (human APOE RNA [1]) [% UTC] | APOE RNA (% UTC) 82 nM (human APOE RNA [1]) [% UTC] | APOE RNA (% UTC) 205 nM (human APOE RNA [1]) [% UTC] | APOE RNA (% UTC) 512 nM (human APOE RNA [1]) [% UTC] | APOE RNA (% UTC) 1,280 nM (human APOE RNA [1]) [% UTC] | APOE RNA (% UTC) 3,200 nM (human APOE RNA [1]) [% UTC] | APOE RNA (% UTC) 8,000 nM (human APOE RNA [1]) [% UTC] | APOE RNA (% UTC) 20,000 nM (human APOE RNA [1]) [% UTC] | IC50 (human APOE RNA [1]) [nM] | inflammatory response in human BJAB cells (BJAB cells [3]) | inflammatory response in human BJAB cells (BJAB cells [4]) | LOG10 CCL22 relative to UTC (BJAB cells [4]) | Immunostimulatory Properties (BJAB cells [4]) | also measured
Aes^mCeoTeoTesGesGksTdsGdzAdzAdzTds^mCdsTdsTdsTdsAdzTksTksAesAe (eA*e[5mC]eTeT*eG*kG*dT*dG[ms]dA[ms]dA[ms]dT*d[5mC]*dT*dT*dT*dA[ms]kT*kT*eA*eA) [Compound No. 1757576] | 78 | 74 | 70 | 56 | 41 | 25 | 12 | 6 | 3 | 7 | 90 | did not induce any inflammatory response | – | – | – | APOE RNA (% control) Cortex (human APOE RNA [2]; Cortex): 26 % control; APOE RNA (% control) Spinal Cord (human APOE RNA [2]; Spinal Cord): 17 % control
TezTeoGeoGksTdsGdzAdzAdzTds^mCdsTdsTdsTdsAdzTksTksAesAesAes^mCe (antisense eT[ms]eTeGkG*dT*dG[ms]dA[ms]dA[ms]dT*d[5mC]*dT*dT*dT*dA[ms]kT*kT*eA*eA*eA*e[5mC]) [Compound No. 1809814] | 102 | 95 | 95 | 88 | 71 | 49 | 19 | 31 | 8 | 13 | 540 | – | did not induce any inflammatory response | 0.07 | Non-Inflammatory | –
1693105: 6-10-4 MOE gapmer CTTGGTGAATCTTTATTAAA, linkages sosssszzzssssszssss (e[5mC]*eTeT*eG*eG*eT*dG[ms]dA[ms]dA[ms]dT*d[5mC]*dT*dT*dT*dA[ms]dT*eT*eA*eA*eA) [compound 1693105] | – | – | – | – | – | – | – | – | – | – | – | – | – | – | – | APOE RNA (% control) Cortex (human APOE RNA [5]; cortex): 51 % control; APOE RNA (% control) Spinal Cord (human APOE RNA [5]; spinal cord): 38 % control; APOE RNA (% control) Cortex (human APOE RNA [6]; Cortex): 65 % control; APOE RNA (% control) Spinal Cord (human APOE RNA [6]; Spinal Cord): 54 % control
^mCksTksTksGdzGdzTdzGdzAdzAdzTds^mCdsTdsTdsTdsAdsTdsTksAksAdzAk (antisense k[5mC]*kT*kT*dG[ms]dG[ms]dT[ms]dG[ms]dA[ms]dA[ms]dT*d[5mC]*dT*dT*dT*dA*dT*kT*kA*dA[ms]kA) [Compound No. 1785602] | 75 | 85 | 75 | 62 | 44 | 31 | 16 | 10 | 8 | 2 | 140 | – | did not induce any inflammatory response | 0.34 | Non-Inflammatory | –
Aks^mCeoTeoTesGesGksTdsGdzAdzAdzTds^mCdsTdsTdsTdsAdzTksTksAesAe (kA*e[5mC]eTeT*eG*kG*dT*dG[ms]dA[ms]dA[ms]dT*d[5mC]*dT*dT*dT*dA[ms]kT*kT*eA*eA) [Compound No. 1809635] | 105 | 87 | 78 | 66 | 55 | 31 | 18 | 16 | 4 | 2 | 210 | did not induce any inflammatory response | – | – | – | –
